Source: patent publication US5863716A, “Treatment of plasmodium” (The Leland Stanford Junior University Board of Trustees, priority 1997, dated 1999)
Where two headings read alike, the source gives them in different places. Blank lines part the entries; values can stand above or below the molecule they belong to.

How the values were obtained:
Type in all cases: cell-based, Plasmodium falciparum
P. falciparum strain FCB = assay: Inhibition of intraerythrocytic growth in culture, Giemsa staining after 24 h; details: for inhibition at 5 µM: Plasmodium falciparum, read-out: [%] inhibition of growth
Description: (§1) P. falciparum strain FCB was used for all experiments and cultured in vitro in according to a modification of the method of Trager and Jensen left off. Trager, W. and Jensen, J. B. (1976) Human malaria in continuous culture., Science (Wash. D.C.) 193: 673-675 Haldar, K., Ferguson, M. A. J. and Cross, G. A. M. (1985) Acylation of a Plasmodium falciparum merozoite surface antigen via sn-1, 2-diacyl glycerol. J. Biol. Chem. 260; 4969-4974. The culture medium contained RPMI 1640 supplemented with 25 Mm hepes, Ph 7.4/11 […] glucose/92 μM hypoxanthine/0.18% sodium bicarbonate/25 μM gentamicin and 10% AB^+ human sera. The parasites were grown in A^+ erythrocytes at 2.5-5% hematocrit. Parasite cultures were synchronized by separation of the early and late stages on a Percoll gradient. The subsequent reincubation of these stages in culture were used to obtain cells 12-24 h in the life cycle. Inhibition of sphingomyelin biosynthetic activity using 5 μM of the various compounds was carried out as described in Example 1. 5 μM of the various compounds were added to 0-12 h rings in the culture medium and cells were examined by Giemsa staining after 24 h.

sphingomyelin synthase = assay: Inhibition of plasmodial sphingomyelin biosynthesis in intact infected erythrocytes (C6-NBD-ceramide to C6-NBD-sphingomyelin, TLC); details: for [%] inhibition of sphingomyelin biosynthetic activity: 5 μM of compound; for effect on enzyme (sphingomyelin synthase) activity: 5 μM, see Example 3
Method: 1×10^8 infected cells 24 h after invasion were washed serum-free in RPMI 1640 and preincubated for thirty min at 37° C. in 1 ml of RPMI 1640 containing 0-5 μM or 0-500 μM of PPMP. (C6-NBD-ceramide (N-[7-(4-nitrobenzo-2-oxa-1,3-diazide)]-6-aminocaproyl-D-erythro-sphingosine) was added to each sample at a final concentration of 5 μM, the samples further incubated for 30 min at 37° C. and cellular lipids extracted. C6-NBD-sphingomyelin was resolved by TLC and quantitated by fluorescence spectrophotometry as described previously. Bligh, E. G. and Dyer, W. Y. (1959) A rapid method for total lipid extraction and purification., Can. J. Biochem. Physiol. 37: 911-917. Haldar, K., Uyetake, L., Ahori, N., Elmendorf, H. G. and Lu, W-1. (1991) The accumulation and metabolism of a fluorescent ceramide derivative in Plasmodium falciparum--infected erythrocytes., Mo. Biochem. Parasitol. 49: 143-156. Elmendorf, H. G. and Haldar, K. (1994) Plasmodium falciparum exports the Golgi marker sphingomyelin synthase into a tubovesicular network in the cytoplasm of mature erythrocytes., J. Cell Biol. 124: 449-462. Each value obtained represented the mean of triplicate determinations from five experiments. The arrow bars indicate the standard deviations. The results are depicted in FIG. 1.
as §1

[1] = test system: P. falciparum schizonts and merozoites; assay: Schizont maturation and merozoite invasion in the presence of drug; details: 5 μM
Method: Schizont-stage parasites isolated over Percoll were allowed to invade in the presence of RPMI 1640 containing 10% human serum or in the presence of RPMI 1640 containing 10% human serum and 5 μM PPMP. 1×10^8 infected erythrocytes of the appropriate stage were incubated in 1 ml of RPMI 1640 supplemented with 2mg/ml defatted BSA and 20 μM C5 -DMB-ceramide. Cells were washed and fixed as described in Example 5. Sequential micrographs were taken on a custom made laser confocal microscope at 400 nm intervals along the Z axis. Raw data were processed as described previously.
Furthermore, the released daughter merozoites enter red cells to form new rings in the continued presence of the drug. This supports the conclusion that the parasite sphingomyelin synthase is essential only to ring and trophozoite-infected red cells in the first 30 to 36 h of intraerythrocytic development.
To determine whether the parasite specific sphingomyelin synthase activity is required for the development of the TVM, ring-infected erythrocytes inhibited in the enzyme from the onset of intra- erythrocytic development were employed. […] Optical sections obtained by staining with C5 DMB-ceramide were observed. A tubular structure was seen extending from the body of the parasite apparently connected to a larger vesicle in the red cell. In rings formed in the presence of PPMP, the intraerythrocytic structures are seen as discrete domains, separated from each other in all three sections. […] Thus, specific inhibition of the parasite's sphingomyelin biosynthetic activity appears to alter the interconnected "tubovesicular morphology" of the TVM into isolated intraerythrocytic compartments or "vesicles" in ring stage parasites.

P. falciparum = assay: Intraerythrocytic development in long term synchronized culture, parasitemia over consecutive cycles; details: Plasmodium falciparum; over three cycles of growth; read-out: lowest effective, killing concentration
Method: Synchronized cultures 12 h after invasion were subjected to different concentrations of PPMP. Parasitemias of drug-treated cultures were determined at various time points during two intraerythrocytic cycles and compared to cells grown in the absence of drug.
The effect of the single lipid analogs to inhibit parasite development in long term culture in consecutive cycles of the parasite growth were investigated. The studies were initiated with synchronized, young rings (0-12h) at 10% parasitemia. In order to ensure healthy growth of the malaria parasite in vitro, the parasitemias of the cultures are not allowed to exceed 10%. Yet under normal conditions a 3-6 fold increase in parasitemias is detected with each round of invasion: thus for each new cycle, the cultures were diluted 4-fold into fresh erythrocytes in the absence or presence of the drug. […] The lowest effective, killing concentration of PDMP over three cycles of growth is 1.0 μM.

[2] = 5 μM added to 0-12 h rings, Giemsa staining after 24 h

Structure (SMILES): CCN(CC)CCO[C@H]1CC[C@@]2(C)C(=CC[C@@H]3[C@@H]2CC[C@]2(C)C(=O)CC[C@@H]32)C1 [U 18666 A]
- inhibition at 5 µM (P. falciparum strain FCB; [2]): 1%
- [%] inhibition of sphingomyelin biosynthetic activity (sphingomyelin synthase): 0%

Structure (SMILES): CCCCCCCCCCCCCCCCCCN [stearylamine]
- inhibition at 5 µM (P. falciparum strain FCB; [2]): 0%

Structure (SMILES): CN(C)CCCN1c2ccccc2CCc2ccccc21 [imipramine]
- inhibition at 5 µM (P. falciparum strain FCB): 7%
- [%] inhibition of sphingomyelin biosynthetic activity (sphingomyelin synthase): 0%

Structure (SMILES): CCCCCCCCCC(=O)N[C@H](CN1CCOCC1)[C@H](O)c1ccccc1 (relative stereo) [dl-threo-PDMP, dl-threo-1-phenyl-2-decanoylamino-3-morpholino-1-propanol]
- fate of schizonts greater than 40 h in the cycle [1]: mature and rupture
- inhibition at 5 µM (P. falciparum strain FCB; [2]): 100%
- minimal effective concentration (P. falciparum): 1 µM

- effect on enzyme (sphingomyelin synthase) activity (sphingomyelin synthase): no effect
Structure (SMILES): CCCCCCCCCCCCCCC[C@H](O)[C@@H](N)CO (racemic) [dl-dihydrosphingosine]
- [%] inhibition of growth (P. falciparum strain FCB; [2]): 8%
- [%] inhibition of sphingomyelin biosynthetic activity (sphingomyelin synthase): 4%

Structure (SMILES): CCCCCCCCCC(=O)N[C@@H](CN1CCOCC1)[C@H](O)c1ccccc1 (relative stereo) [dl-erythro-PDMP]
- inhibition at 5 µM (P. falciparum strain FCB; [2]): 5%

Structure (SMILES): CCCCCCCCCCCCC/C=C/[C@@H](O)[C@@H](N)CO [sphingosine]
- inhibition at 5 µM (P. falciparum strain FCB): 0%
- [%] inhibition of sphingomyelin biosynthetic activity (sphingomyelin synthase): 0%
- effect on enzyme (sphingomyelin synthase) activity (sphingomyelin synthase): no effect
